# Measured values taken from paper PMC3429506, “Screening for Novel LRRK2 Inhibitors Using a High-Throughput TR-FRET Cellular Assay for LRRK2 Ser935 Phosphorylation” (PLoS ONE, 2012).
# pIC50: −log10 of the molar value.
# What was measured:
# LRRK2 A2016T/G2019S = target: T1, LRRK2 A2016T/G2019S (Homo sapiens, UniProt Q5S007, A2016T/G2019S); test: Immunoprecipitation/Western analysis of LRRK2 phosphorylation in T-REx HEK293 cells expressing inhibitor desensitizing mutant; type: cell-based; details: for effect of desensitizing mutation A2016T/G2019S on compound-induced dephosphorylation (IP-Western): 20 µM, Figure 6 IRM
# T1 construct: expressed in transfected cells
# Procedure: (§1) Immunoblot analysis: BacMam LRRK2-GFP transduced U-2 OS or SH-SY5Y cells (10^7 cells) were left untreated or treated with 3 µM LRRK2-IN-I for 90 min. For lysate preparation, the cells were washed once with ice-cold PBS and lysed by addition of ice-cold lysis buffer (20 mM Tris-HCl, pH 7.4, 1% NP-40, 5 mM EDTA, 5 mM NaF, 150 mM NaCl, and 1∶100 of protease and phosphatase inhibitor cocktails). The lysate was cleared of debris by centrifugation. Equal amount of total protein was loaded onto each lane for SDS-PAGE (3–8% Tris Acetate). The proteins were transferred onto nitrocellulose membrane using the iBLOT® dry blotting system (Life Technologies) according to manufacturer’s protocol. The membranes were blocked and incubated with a primary antibody against LRRK2 (Cell Signaling Technologies), followed by incubation with alkaline phosphatase-conjugated secondary antibody (WesternBreeze® chromogenic Kit, Life Technologies). The blot was developed by using the chromogenic BCIP/NBT substrate (WesternBreeze® chromogenic Kit, Life Technologies). […] Two days post induction, cells were treated for 90 minutes in the presence of 20 µM of compound or DMSO vehicle control. Cells were rapidly lysed in ice cold lysis buffer 50 mM Tris/HCl, pH 7.5, 1 mM EGTA, 1 mM EDTA, […] 1 mM sodium orthovanadate, 10 mM sodium beta-glycerolphosphate, 50 mM NaF, 5 mM sodium pyrophosphate, 0.27 M sucrose, 1 mM benzamidine and 2 mM phenylmethanesulphonylfluoride (PMSF) and one tablet each complete protease inhibitor and PhosSTOP phosphatase inhibitor (Roche) and was supplemented with 1% (v/v) Triton X-100. GFP-LRRK2 was immunoprecipitated with GFP nanotrap beads (ChromoTek). Immunecomplexes were washed twice with lysis buffer supplemented with 300 mM NaCl and once with Buffer A (50 mM Tris/HCl, pH 7.5, 50 mM NaCl, 0.1 mM EGTA and 0.1% (v/v) 2-mercaptoethanol, and 0.27 M sucrose).
# [1] = system: SH-SY5Y cells expressing LRRK2-GFP G2019S; test: Cytotoxicity assay (resazurin-based cell viability); details: read-out: Cytotoxicity Assay IC50; same conditions as TR-FRET follow-up; one representative of two experiments
# LRRK2 G2019S [2] = target: T2, LRRK2 G2019S (Homo sapiens, UniProt Q5S007, G2019S); test: In vitro biochemical LRRK2 TR-FRET activity assay; details: for pIC50: LRRK2 G2019S, ATP 134 µM (Km,app), LRRKtide substrate, three independent experiments, read-out: Biochemical LRRK2 assay IC50 +/- SD
# Procedure: The Biochemical LRRK2 TR-FRET activity assay was performed according to the manufacture recommended assay protocol (Life Technologies). […] After incubation at room temperature for 1 hour, the kinase reactions were stopped by addition of 10 µL of 20 mM EDTA and 4 nM Tb-anti-pERM (pLRRKtide) antibody in TR-FRET dilution buffer (Life Technologies). After a 30 minute incubation at room temperature, TR-FRET measurements were obtained on a BMG PHERAstar plate reader using LanthaScreen® filters and settings. A 16 point, 2-fold dilution series of each compound was tested in triplicate at each concentration and assays were also performed in triplicate.
# LRRK2 G2019S [3] = target: T2, LRRK2 G2019S; test: TR-FRET cellular assay for LRRK2 Ser935 phosphorylation, SH-SY5Y cells, BacMam LRRK2-GFP G2019S (incl. Tocriscreen Mini library screen and follow-up); type: cell-based; set-up: This high-throughput assay utilizes cells expressing full-length human LRRK2 with a C-terminal GFP tag (LRRK2-GFP); host or cells: SH-SY5Y cells transduced with BacMam; details: for Cellular TR-FRET Assay Max % Inhibition: 90 min; for pIC50: three independent experiments
# Procedure: (§2) U-2 OS cells are maintained in growth medium (McCoy’s 5A supplemented with 10% dialyzed FBS (dFBS), 10 mM HEPES, 0.1 mM NEAA, 1 mM Sodium Pyruvate, and 100 U/mL Penicillin/100 µg/mL Streptomycin). HEK293T cells are maintained in DMEM with 10% dFBS, 10 mM HEPES, 0.1 mM NEAA and 100 U/mL Penicillin/100 µg/mL Streptomycin. SH-SY5Y cells are maintained in DMEM/F-12 medium supplemented with 10% dFBS and 100 U/mL Penicillin/100 µg/mL Streptomycin. […] GIBCO® human neural stem cells (hNSCs) were propagated as an adherent culture in StemPro® NSC SFM according to the manufacturer’s recommended protocol (Life Technologies). For BacMam transduction of U-2 OS and HEK293T, cells were harvested, mixed with various amounts of BacMam LRRK2-GFP reagent (v/v) and plated onto 6-well plates. […] Cells were assayed in 384-well format (∼20,000 cells/well) 48 hours post-transduction as above.
# (§3) Transduced cells in the 384-well assay plate were incubated with indicated inhibitors (5X, 5 µL/well) for 60 to 90 minutes. During this time, 6 X lysis buffer (Life Technologies) was supplemented with 30 nM Tb-labeled anti-LRRK2 pSer935 antibody and both protease and phosphatase inhibitor cocktails (Sigma). The complete 6 X lysis buffer was added to each well (5 µL/well) and the plates were incubated at room temperature in the dark for 2 hours. […] A sigmoidal dose-response equation with varying slope was used to fit the data and generate IC50 values. Z′-factor values were calculated as: Z′-factor = 1 - [(3 × stdevno virus +3 × stdevmaxvirus)/(avgmaxvirus – avgno-virus)]. The IC50 values reported in Table 1 are the averaged numbers from three independent experiments.
# 40 nL of 10 mM Tocris library compounds in DMSO were dispensed into each well of the assay plate by the ECHO system. Equal volumes of DMSO were dispensed into the control wells. Cells were incubated with compounds for 90 to 120 min prior to cell lysis and detection as described above. The percent inhibition is calculated as: [(average emission ratios of DMSO control wells – average emission ratios of compound wells)/(average emission ratios of DMSO control wells – average emission ratios of LRRK2-IN-1 treated wells)] * 100. For the dose-response follow-up studies, fresh compound DMSO stock solutions were prepared from powder. […] Z′-factor value was calculated as: Z′-factor = 1 - [(3 × stdevLRRK2-IN-1+3 × stdevDMSO)/(avgDMSO – avgLRRK2-IN-1)]. The IC50 values reported in Table 2 are the averaged numbers from three independent experiments for both cellular and biochemical TR-FRET assays and one representative result of two independent experiments for the cytotoxicity assay.
# GFP-LRRK2 G2019S = target: T3, GFP-LRRK2 G2019S (Homo sapiens, UniProt Q5S007, G2019S); test: Immunoprecipitation/Western analysis of LRRK2 phosphorylation at Ser910, Ser935, Ser955, Ser973 in HEK293 T-REx GFP-LRRK2 G2019S cells; type: cell-based; details: for effect on phosphorylation of Ser910, Ser935, Ser955 and Ser973 (IP-Western): 20 µM, 90 min, HEK293 GFP-LRRK2 G2019S, Figure 6
# T3 construct: expressed in transfected cells
# Procedure: as §1
# LRRK2 wild-type [4] = target: T4, LRRK2 wild-type (Homo sapiens, UniProt Q5S007); test: TR-FRET cellular assay for LRRK2 Ser935 phosphorylation, U-2 OS cells, BacMam LRRK2-GFP wild-type; type: cell-based; set-up: This high-throughput assay utilizes cells expressing full-length human LRRK2 with a C-terminal GFP tag (LRRK2-GFP); host or cells: U-2 OS cells transduced with BacMam; details: WT, +/- SD, three independent experiments, * = partial inhibition, read-out: IC50, TR-FRET cell-based assay for Ser935 phosphorylation of LRRK2
# Procedure: as §2, §3
# [5] = system: LRRK2 Ser935 phosphorylation; test: TR-FRET cellular assay for LRRK2 Ser935 phosphorylation (cell background not given); type: cell-based, human; details: result in words
# Procedure: Transduced cells in the 384-well assay plate were incubated with indicated inhibitors (5X, 5 µL/well) for 60 to 90 minutes. During this time, 6 X lysis buffer (Life Technologies) was supplemented with 30 nM Tb-labeled anti-LRRK2 pSer935 antibody and both protease and phosphatase inhibitor cocktails (Sigma). The complete 6 X lysis buffer was added to each well (5 µL/well) and the plates were incubated at room temperature in the dark for 2 hours. The plate was then read on an EnVision® multilabel plate reader (PerkinElmer, Waltham, MA) with excitation at 340 nm and emission 520 nm and 495 nm. […]. A sigmoidal dose-response equation with varying slope was used to fit the data and generate IC50 values. […]. The IC50 values reported in Table 1 are the averaged numbers from three independent experiments.
# LRRK2 G2019S [6] = target: T2, LRRK2 G2019S; test: TR-FRET cellular assay for LRRK2 Ser935 phosphorylation, U-2 OS cells, BacMam LRRK2-GFP G2019S; type: cell-based; set-up: This high-throughput assay utilizes cells expressing full-length human LRRK2 with a C-terminal GFP tag (LRRK2-GFP); host or cells: U-2 OS, SH-SY5Y, HEK293T cells or human neural stem cells transduced with BacMam; details: G2019S, +/- SD, three independent experiments, * = partial inhibition, read-out: IC50, TR-FRET cell-based assay for Ser935 phosphorylation of LRRK2
# Procedure: as §2, §3
# LRRK2 wild-type [7] = target: T4, LRRK2 wild-type; test: TR-FRET cellular assay for LRRK2 Ser935 phosphorylation, SH-SY5Y cells, BacMam LRRK2-GFP wild-type; type: cell-based; set-up: This high-throughput assay utilizes cells expressing full-length human LRRK2 with a C-terminal GFP tag (LRRK2-GFP); host or cells: SH-SY5Y cells transduced with BacMam; details: WT, +/- SD, three independent experiments, * = partial inhibition, read-out: IC50, TR-FRET cell-based assay for Ser935 phosphorylation of LRRK2
# Procedure: as §2, §3
# LRRK2 G2019S [8] = target: T2, LRRK2 G2019S; test: TR-FRET cellular assay for LRRK2 Ser935 phosphorylation, HEK293T cells, BacMam LRRK2-GFP G2019S; set-up: This high-throughput assay utilizes cells expressing full-length human LRRK2 with a C-terminal GFP tag (LRRK2-GFP); host or cells: HEK293T cells transduced with BacMam; details: +/- SD, three independent experiments, * = partial inhibition, read-out: IC50, TR-FRET cell-based assay for Ser935 phosphorylation of LRRK2
# Procedure: as §2, §3
# LRRK2 wild-type [9] = target: T4, LRRK2 wild-type; test: TR-FRET cellular assay for LRRK2 Ser935 phosphorylation, HEK293T cells, BacMam LRRK2-GFP wild-type; set-up: This high-throughput assay utilizes cells expressing full-length human LRRK2 with a C-terminal GFP tag (LRRK2-GFP); host or cells: HEK293T cells transduced with BacMam; details: WT, +/- SD, three independent experiments, * = partial inhibition, read-out: IC50, TR-FRET cell-based assay for Ser935 phosphorylation of LRRK2
# Procedure: as §2, §3
# [10] = Cytotoxicity assay (resazurin-based cell viability); details: human
# [11] = Tocriscreen Mini library screen, 20 µM, SH-SY5Y G2019S, relative to LRRK2-IN-1 control
# [12] = dose-response follow-up, SH-SY5Y G2019S
# [13] = dose-response follow-up, SH-SY5Y G2019S, read-out: Cellular TR-FRET Assay IC50 +/-SD
# [14] = SH-SY5Y, G2019S, +/- SD, * = partial inhibition, read-out: IC50, TR-FRET cell-based assay for Ser935 phosphorylation of LRRK2
# T2 sequence (Q5S007 whole entry G2019S): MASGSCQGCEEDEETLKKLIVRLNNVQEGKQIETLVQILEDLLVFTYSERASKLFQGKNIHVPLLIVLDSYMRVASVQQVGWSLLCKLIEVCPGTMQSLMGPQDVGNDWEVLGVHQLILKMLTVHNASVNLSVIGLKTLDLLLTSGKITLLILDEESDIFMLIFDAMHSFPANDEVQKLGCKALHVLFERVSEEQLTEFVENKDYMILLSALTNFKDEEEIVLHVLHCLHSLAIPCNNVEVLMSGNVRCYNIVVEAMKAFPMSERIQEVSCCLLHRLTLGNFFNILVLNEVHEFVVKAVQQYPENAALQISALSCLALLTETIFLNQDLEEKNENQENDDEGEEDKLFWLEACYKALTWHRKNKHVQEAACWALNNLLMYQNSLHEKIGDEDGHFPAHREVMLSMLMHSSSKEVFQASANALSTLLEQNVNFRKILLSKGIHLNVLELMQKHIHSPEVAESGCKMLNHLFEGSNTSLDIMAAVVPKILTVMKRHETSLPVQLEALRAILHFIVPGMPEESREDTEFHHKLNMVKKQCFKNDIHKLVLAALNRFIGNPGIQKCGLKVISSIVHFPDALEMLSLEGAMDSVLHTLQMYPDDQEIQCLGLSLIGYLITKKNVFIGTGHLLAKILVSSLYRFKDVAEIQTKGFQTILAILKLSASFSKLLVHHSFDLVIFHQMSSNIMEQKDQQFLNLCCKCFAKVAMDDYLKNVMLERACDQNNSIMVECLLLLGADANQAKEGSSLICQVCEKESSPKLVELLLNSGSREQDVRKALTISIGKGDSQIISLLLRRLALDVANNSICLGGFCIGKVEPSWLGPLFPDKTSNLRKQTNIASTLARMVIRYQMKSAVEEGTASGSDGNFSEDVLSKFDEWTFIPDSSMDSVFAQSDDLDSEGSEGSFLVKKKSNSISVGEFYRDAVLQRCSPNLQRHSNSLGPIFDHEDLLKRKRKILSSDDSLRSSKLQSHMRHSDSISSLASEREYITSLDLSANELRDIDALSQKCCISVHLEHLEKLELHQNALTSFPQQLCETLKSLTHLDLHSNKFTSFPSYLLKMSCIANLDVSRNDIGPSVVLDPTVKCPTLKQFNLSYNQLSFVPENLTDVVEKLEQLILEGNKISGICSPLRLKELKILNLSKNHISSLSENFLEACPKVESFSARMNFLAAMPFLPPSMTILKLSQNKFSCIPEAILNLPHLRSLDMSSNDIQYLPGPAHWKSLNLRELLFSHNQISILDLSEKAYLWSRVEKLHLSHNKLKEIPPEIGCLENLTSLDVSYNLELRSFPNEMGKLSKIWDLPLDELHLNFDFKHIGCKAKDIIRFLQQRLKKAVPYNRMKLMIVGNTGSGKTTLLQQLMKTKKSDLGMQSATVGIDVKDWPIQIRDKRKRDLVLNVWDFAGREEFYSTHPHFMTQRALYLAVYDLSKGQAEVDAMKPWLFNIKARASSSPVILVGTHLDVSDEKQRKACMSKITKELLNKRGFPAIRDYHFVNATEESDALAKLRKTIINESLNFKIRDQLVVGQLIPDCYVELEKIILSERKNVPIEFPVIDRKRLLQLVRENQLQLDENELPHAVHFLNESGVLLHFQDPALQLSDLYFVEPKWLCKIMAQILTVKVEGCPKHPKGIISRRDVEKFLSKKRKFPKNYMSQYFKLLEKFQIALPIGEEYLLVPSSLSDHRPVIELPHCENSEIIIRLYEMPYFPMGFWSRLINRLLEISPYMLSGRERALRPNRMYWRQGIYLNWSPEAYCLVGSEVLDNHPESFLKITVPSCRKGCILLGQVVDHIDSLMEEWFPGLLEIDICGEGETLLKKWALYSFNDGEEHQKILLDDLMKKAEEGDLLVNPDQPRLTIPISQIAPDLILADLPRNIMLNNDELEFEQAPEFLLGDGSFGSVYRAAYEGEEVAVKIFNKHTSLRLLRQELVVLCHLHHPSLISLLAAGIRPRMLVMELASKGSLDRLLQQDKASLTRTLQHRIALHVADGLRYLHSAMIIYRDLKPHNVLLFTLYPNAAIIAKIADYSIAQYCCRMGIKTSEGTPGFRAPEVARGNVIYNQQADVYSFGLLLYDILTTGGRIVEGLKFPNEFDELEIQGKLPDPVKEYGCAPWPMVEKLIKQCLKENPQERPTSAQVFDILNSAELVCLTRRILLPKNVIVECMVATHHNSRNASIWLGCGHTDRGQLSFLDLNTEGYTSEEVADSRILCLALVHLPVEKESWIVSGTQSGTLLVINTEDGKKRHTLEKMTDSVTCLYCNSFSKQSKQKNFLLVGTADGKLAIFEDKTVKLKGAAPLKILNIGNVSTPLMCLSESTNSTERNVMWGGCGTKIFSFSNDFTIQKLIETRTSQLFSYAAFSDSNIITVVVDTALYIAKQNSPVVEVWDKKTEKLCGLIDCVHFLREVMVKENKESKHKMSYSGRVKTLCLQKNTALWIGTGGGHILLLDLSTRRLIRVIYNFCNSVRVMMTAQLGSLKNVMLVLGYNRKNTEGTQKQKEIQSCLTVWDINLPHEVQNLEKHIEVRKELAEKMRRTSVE
# T3 sequence (Q5S007 whole entry G2019S): as above
# T4 sequence (Q5S007 whole entry): as the sequence (Q5S007 whole entry G2019S) above, with S2019G counted along it
# T1 sequence (Q5S007 whole entry A2016T/G2019S): as the sequence (Q5S007 whole entry G2019S) above, with A2016T counted along it
Compound,effect of desensitizing mutation A2016T/G2019S on compound-induced dephosphorylation (IP-Western) (LRRK2 A2016T/G2019S),"LRRK2 phosphorylation remaining, % of untreated G2019S (LRRK2 A2016T/G2019S; 293 cells, LRRK2 G2019S/A2016T) [%]",pIC50 [1],pIC50 (LRRK2 G2019S [2]),effect on LRRK2 activity in vitro (LRRK2 G2019S [2]; result in words),%Inhibition Initial screen (LRRK2 G2019S [3]; [11]) [%],Cellular TR-FRET Assay Max % Inhibition (LRRK2 G2019S [3]; [12]) [%],pIC50 (LRRK2 G2019S [3]; [13]),"effect on phosphorylation of Ser910, Ser935, Ser955 and Ser973 (IP-Western) (GFP-LRRK2 G2019S)","LRRK2 phosphorylation remaining, % of untreated G2019S (GFP-LRRK2 G2019S; 293 cells, LRRK2 G2019S) [%]",pIC50 (LRRK2 wild-type [4]),effect on the phosphorylation of Ser935 in the TR-FRET cellular assay [5],pIC50 (LRRK2 G2019S [3]; [14]),pIC50 (LRRK2 G2019S [6]),pIC50 (LRRK2 wild-type [7]),pIC50 (LRRK2 G2019S [8]),pIC50 (LRRK2 wild-type [9]),pIC50 [10],"inhibition at 20 µM (LRRK2 G2019S [3]; SH-SY5Y, Tocriscreen Mini library screen, 20 µM, SH-SY5Y G2019S, relative to LRRK2-IN-1 control, read-out: %Inhibition Initial screen) [%]"
Cc1ccc(S(=O)(=O)/C=C/C#N)cc1 [Bay 11-7821],did not appear to be changed,50,4.70,< 4.00,did not repress LRRK2 activity in vitro,85.5,94,5.40,moderately reduced phosphorylation of all four residues,50,–,–,–,–,–,–,–,–,–
O=S(=O)(NCCNC/C=C/c1ccc(Br)cc1)c1cccc2cnccc12 [H-89],–,–,–,–,–,–,–,–,–,–,< 4.70,no effect,< 4.70,< 4.70,< 4.70,–,–,–,–
O=C1Nc2ccc(I)cc2/C1=C/c1cc(Br)c(O)c(Br)c1 [GW5074],–,–,–,–,–,–,–,–,–,–,< 4.70,–,< 4.70,6.33,< 4.70,6.55,< 4.70,–,–
Cc1cncc2cccc(S(=O)(=O)N3CCCNC[C@@H]3C)c12 [H-1152],–,–,–,–,–,–,–,–,–,–,5.48,–,6.11,6.05,5.78,5.86,5.53,–,–
Oc1c2ccccc2c2c3c(cccc13)N=N2 [SP 600125],–,–,–,6.66,–,88.3,103,6.00,"inhibited phosphorylation of Ser910, Ser935, Ser955 and Ser973",–,–,–,–,–,–,–,–,< 4.70,88
Cn1cc(/C=C2\C(=O)Nc3cccnc32)c2ccccc21 [GW 441756],rescued phosphorylation,–,< 4.70,6.49,–,69.7,72,5.66,"inhibited phosphorylation of Ser910, Ser935, Ser955 and Ser973",–,–,–,–,–,–,–,–,–,–
